In patent publication US7253158B2, “Sulfonamides” (Hoffmann-La Roche Inc., priority 2004, dated 2007):

Biological target: T1, γ-secretase (Homo sapiens, UniProt P49768)
T1 construct: uses a HEK293 membrane fraction as a source of γ-secretase; endogenous in cells; host or cells: HEK293 (microsomal membrane fraction, solubilised in 0.25% CHAPSO)
Experiment: in vitro γ-secretase assay (HEK293 membrane fraction, recombinant APP substrate, Abeta ELISA)
Type: biochemical
Details: γ-secretase inhibition, table head prints none
Text: Description of γ-Secretase Assay
The activity of test compounds can be evaluated in assays which measure the proteolytic cleavage of suitable substrates by γ-secretase activity. These can be cellular assays where e.g., a substrate of the γ-secretase is fused in its cytoplasmic domain to a transcription factor. Cells are transfected with this fusion gene and a reporter gene, e.g., firefly luciferase, which expression is enhanced by the transcription factor. Cleavage of the fused substrate by γ-secretase will lead to expression of the reporter gene which can be monitored in appropriate assays. The γ-secretase activity can also be determined in cell-free in vitro asays where e.g., a cell lysate containing the γ-secretase complex is incubated with a suitable APP-derived substrate which is cleaved to the Abeta peptides. The amount of produced peptides can be determined with specific ELISA assays. Cell lines of neuronal origin secrete Abeta peptides which can be measured with the specific ELISA assay. Treatment with compounds which inhibit γ-secretase leads to a reduction of secreted Abeta thus providing a measure of inhibition.
The in vitro assay of γ-secretase activity uses a HEK293 membrane fraction as a source of γ-secretase and a recombinant APP substrate. Latter consist of the C-terminal 100 amino acids of human APP fused to a 6× Histidin tail for purification which is expressed in E. coli in a regulatable expression vector, e.g. pEt15. This recombinant protein corresponds to the truncated APP fragment which results after […] of the extracellular domain and which constitutes the γ-secretase substrate. […] Hek293 cells are mechanically disrupted and the microsomal fraction is isolated by differential centrifugation.

IC50 | Structure (SMILES)
150 nM | COc1ccc(CN(C2CCCCNC2=O)S(=O)(=O)c2ccc(Br)cc2)cc1F (racemic) [Example 28, rac-4-Bromo-N-(3-fluoro-4-methoxy-benzyl)-N-(2-oxo-azepan-3-yl)-benzenesulfonamide]
30 nM | CC(C)C1CCNC(=O)C(N(Cc2ccc(C(=O)NC3CC3)cc2)S(=O)(=O)c2ccc(Cl)cc2)C1 (racemic) [Example 43, rac-4-{[(4-Chloro-benzenesulfonyl)-(5-isopropyl-2-oxo-azepan-3-yl)-amino]-methyl}-N-cyclopropyl-benzamide]
130 nM | COC(=O)c1ccc(CN(C2CCCCNC2=O)S(=O)(=O)c2ccc(Cl)cc2)cc1 (racemic) [Example 57, rac-4-{[(4-Chloro-benzenesulfonyl)-(2-oxo-azepan-3-yl)-amino]-methyl}-benzoic acid methyl ester]
190 nM | O=C(NC1CC1)c1ccc(CN(C2CCCCNC2=O)S(=O)(=O)c2ccc(Cl)cc2)cc1 (racemic) [Example 75, rac-4-{[(4-Chloro-benzenesulfonyl)-(2-oxo-azepan-3-yl)-amino]-methyl}-N-cyclopropyl-benzamide]
10 nM | COC(=O)c1ccc(CN(C2CC(C)(C)CCNC2=O)S(=O)(=O)c2ccc(Cl)cc2)cc1 (racemic) [Example 138, Rac-4-{[(4-Chloro-benzenesulfonyl)-(5,5-dimethyl-2-oxo-azepan-3-yl)-amino]-methyl}-benzoic acid methyl ester]
20 nM | CC1(C)CCNC(=O)C(N(Cc2ccc(C(=O)NCCF)cc2)S(=O)(=O)c2ccc(Cl)cc2)C1 (racemic) [Example 140, rac-4-{[(4-Chloro-benzenesulfonyl)-(5,5-dimethyl-2-oxo-azepan-3-yl)-amino]-methyl}-N-(2-fluoro-ethyl)-benzamide]
20 nM | CC1(C)CCNC(=O)C(N(Cc2ccc(C(=O)NCC(F)(F)F)cc2)S(=O)(=O)c2ccc(Cl)cc2)C1 (racemic) [Example 141, rac-4-{[(4-Chloro-benzenesulfonyl)-(5,5-dimethyl-2-oxo-azepan-3-yl)-amino]-methyl}-N-(2,2,2-trifluoro-ethyl)-benzamide]
20 nM | CC1(C)CCNC(=O)C(N(Cc2ccc(C(=O)N[C@@H]3C[C@@H]3F)cc2)S(=O)(=O)c2ccc(Cl)cc2)C1 (mixture of isomers) [Example 142, rac-4-{[(4-Chloro-benzenesulfonyl)-(5,5-dimethyl-2-oxo-azepan-3-yl)-amino]-methyl}-N-((1R,2S)-2-fluoro-cyclopropyl)-benzamide]
40 nM | CC1(C)CCNC(=O)C(N(Cc2ccc(C(=O)NCCO)cc2)S(=O)(=O)c2ccc(Cl)cc2)C1 (racemic) [Example 143, rac-4-{[(4-Chloro-benzenesulfonyl)-(5,5-dimethyl-2-oxo-azepan-3-yl)-amino]-methyl}-N-(2-hydroxy-ethyl)-benzamide]
50 nM | CC1(C)CCNC(=O)C(N(Cc2ccc(C(=O)NC3CCCC3)cc2)S(=O)(=O)c2ccc(Cl)cc2)C1 (racemic) [Example 144, rac-4-{[(4-Chloro-benzenesulfonyl)-(5,5-dimethyl-2-oxo-azepan-3-yl)-amino]-methyl}-N-cyclopentyl-benzamide]
10 nM | CNC(=O)c1ccc(CN(C2CC(C)(C)CCNC2=O)S(=O)(=O)c2ccc(Cl)cc2)cc1 (racemic) [Example 145, rac-4-{[(4-Chloro-benzenesulfonyl)-(5,5-dimethyl-2-oxo-azepan-3-yl)-amino]-methyl}-N-methyl-benzamide]
20 nM | CC1(C)CCNC(=O)C(N(Cc2ccc(C(N)=O)cc2)S(=O)(=O)c2ccc(Cl)cc2)C1 (racemic) [Example 146, rac-4-{[(4-Chloro-benzenesulfonyl)-(5,5-dimethyl-2-oxo-azepan-3-yl)-amino]-methyl}-benzamide]
20 nM | CC1(C)CCNC(=O)C(N(Cc2ccc(C(=O)NCc3ccccc3)cc2)S(=O)(=O)c2ccc(Cl)cc2)C1 (racemic) [Example 147, rac-N-Benzyl-4-{[(4-chloro-benzenesulfonyl)-(5,5-dimethyl-2-oxo-azepan-3-yl)-amino]-methyl}-benzamide]
